From patent US20110027352A1, “COMPOUNDS FOR USE IN THE TREATMENT OF NEUROPATHIC PAIN” (priority 2008, published 2011)
Entries after “also recorded” stand apart in the source; their conditions may differ. Counter-ions that a name gives are not always drawn.

Experiments:
Format in all cases: in vivo, C57BL/6J mice
[1] = tested on: mechanical allodynia of the neuropathic (“Cuff”) mice; assay: Cotreatment with adrenoreceptor antagonists in Cuff mice relieved by chronic nortriptylin or beta-agonist treatment, von Frey test; details: for Blocking of the effect of antidepressants on neuropathic allodynia by repeated antagonist treatment, summary statement: doses as in examples 3 to 6; for Effect of coadministered beta2-adrenoreceptor antagonist ICI 118,551 on the allodynia of agonist-treated Cuff mice: ICI 118,551 2 mg/kg intraperitoneal, after 3 weeks of agonist treatment (doses as in chronic treatment; terbutalin 0.5 mg/kg), 3 to 6 days of cotreatment; for Effect of ICI 118,551 on the therapeutic effect of chronic agonist treatment on neuropathic allodynia, summary statement: chronic treatment with the agonist plus beta2-adrenoreceptor antagonist ICI 118,551
Protocol: (§1) The model is obtained by placing a polyethylene cuff around the main branch of the right sciatic nerve of each mouse. Before any surgical procedure, the mice were assigned to the various experimental groups in such a way that the baseline mechanical nociception threshold and the weight are equivalent between the various groups. The surgical procedure was carried out under ketamin-xylazin anesthesia (ketamin: 17 mg/ml, xylazin 2.5 mg/ml, intraperitoneal injection in a proportion of 4 ml/kg) (limited liability company Centravet, Taden, France). The common branch of the sciatic nerve was exposed and a section 2 mm long of a hollow PE-20 polyethylene tube (“Harvard Apparatus”, Les Ulis, France) was placed around said branch (“Cuff” group). […] Control mice were operated on according to the same procedure, but without placing the cuff (“Sham” group). The experimental groups are made up of at least 4 mice for each control (“Sham”) group and at least 5 mice for each neuropathic (“Cuff”) group.
For the tests, in the examples which follow, the pressure is exerted on the foot of the mice by means of von Frey filaments (Bioseb, Chaville, France) (Benbouzid, M. et al. Biological Psychiatry 63:633-636 (2008) (10) and Benbouzid, M. et al. European Journal of Pain 12:591-599 (2008) (11)). The mice are placed in transparent Plexiglas (registered trademark) boxes (7 cm×9 cm×7 cm) placed on a raised grid. Before the test, the mice are allowed to become accustomed to this device for 15 minutes. During the test, the von Frey filaments are applied to the plantar surface of each back foot according to ascending forces (from 0.16 g up to a foot withdrawal response, or up to a maximum of 10 g). Each filament is tested 5 times per foot and the threshold is defined by the presence of 3 or more withdrawals observed over the 5 tests. Before the surgery as described above, the animals were pretested in order to establish their baseline nociceptive response. During the chronic treatment experiments and those of repeated injection of antagonists, the tests are carried out in the mornings before the first injection of the day. During the acute agonist injection experiments, the tests are carried out after the first injection according to the time course as presented on the graphs.
The procedure for intrathecal (i.t.) injection of the beta2-adrenoreceptor antagonist ICI 118,551 (3 μg in 10 μl) is carried out under halothane gas anesthesia according to the protocol described by Inoue et al. (Nature Medicine 2004, 10:712-718 (12)). These i.t. injections are carried out just before the intraperitoneal injection of salbutamol (2 mg/kg, i.p.). A 27-gauge injection needle connected to a 50 μl Hamilton syringe is inserted, between the L5 and L6 vertebrae, into the subarachnoid space. The correct placement of the needle is verified by the presence of a reflex movement of the tail of the mouse. The mice are pretested before this cotreatment procedure, and then cotreated twice (a morning and the corresponding evening) before being retested the following morning for their mechanical nociceptive sensitivity.

[2] = tested on: nociceptive sensitivity of the mice of the control (“Sham”) group; assay: von Frey filament test in control (Sham) mice operated without cuff; details: for Sensitivity of control (Sham) animals under chronic treatment, recapitulation (FIG. 26): chronic treatment (14-21 days), doses and modes as in examples 2, 7, 9 to 14 and 20 (formoterol 0.5 mg/kg, terbutalin 5 mg/kg); for Nociceptive sensitivity of control (Sham) mice under chronic treatment: repeated injections, doses and modes as for the Cuff mice of the same example
Protocol: (§2) The experiments were carried out on adult male mice. The pharmacological experiments were carried out using C57BL/6J mice (3-to-6 weeks old on their arrival, Charles River, L'Arbresle, France).
as §1
(§3) The mice are placed in transparent Plexiglas (registered trademark) boxes (7 cm×9 cm×7 cm) placed on a raised grid. Before the test, the mice are allowed to become accustomed to this device for 15 minutes. During the test, the von Frey filaments are applied to the plantar surface of each back foot according to ascending forces (from 0.16 g up to a foot withdrawal response, or up to a maximum of 10 g). Each filament is tested 5 times per foot and the threshold is defined by the presence of 3 or more withdrawals observed over the 5 tests. Before the surgery as described above, the animals were pretested in order to establish their baseline nociceptive response. During the chronic treatment experiments and those of repeated injection of antagonists, the tests are carried out in the mornings before the first injection of the day. During the acute agonist injection experiments, the tests are carried out after the first injection according to the time course as presented on the graphs.
(§4) For all the treatments carried out by injection, said injections were given intraperitoneally in a volume of 50 microL per 10 mg of body weight.

[3] = tested on: mechanical allodynia of the neuropathic (“Cuff”) mice; assay: Sciatic nerve cuff murine model of neuropathic pain, von Frey filament test in neuropathic (Cuff) mice; details: for Mechanical allodynia of Cuff mice after the first (acute) injection: intraperitoneal, mice neuropathic for 2 weeks; for Mechanical allodynia in neuropathic (Cuff) mice after chronic application of a gel to the skin: 0.1 ml of gel twice a day, from 8 days after surgery; for Allodynia in neuropathic (Cuff) animals after chronic treatment, recapitulation (FIG. 25): chronic treatment (14-21 days), doses and modes as in examples 7, 9 to 14 and 20 (formoterol 0.5 mg/kg, terbutalin 5 mg/kg); for Effect on neuropathic allodynia acutely after the first injection, summary statement: first injection of the agonist, doses as in examples 7, 9, 11 and 15
Protocol: as §2
All the experiments began with mice that were 6-to-9 weeks old. […] For all the other experiments, the mice were combined at four to five per cage and kept under alternating 12-hour day/night (light at 6 am) with food and water ad libitum.
as §1, §3
The surgery for installing the cuff corresponds to day 0.
as §4

[4] = 0.5 mg/kg, injection twice a day, chronic
[5] = intraperitoneal antagonist, doses as for the Cuff mice of the same example (ICI 118,551 2 mg/kg, yohimbin 2 mg/kg, propranolol 5 mg/kg), with or without cotreatment
[6] = antagonist 2 mg/kg intraperitoneal with nortriptylin 5 mg/kg twice a day, after 3 weeks of nortriptylin (metoprolol, ICI 118,551: for 6 days)

**Q.** Which results are given for `CCc1ccccc1OC[C@@H](O)CN[C@H]1CCCc2ccccc21` [SR59230A]?
**A.** Effect of antagonist cotreatment on the therapeutic benefit of nortriptylin in Cuff mice ([1]; antagonist 2.5 mg/kg intraperitoneal for 6 days with nortriptylin, after 3 weeks of nortriptylin): has no influence on the therapeutic benefit; Blocking of the effect of antidepressants on neuropathic allodynia by repeated antagonist treatment, summary statement [1]: only the beta2-adrenoreceptor antagonist blocks the effect of antidepressants

**Q.** Which “Sensitivity of control (Sham) animals under chronic treatment, recapitulation (FIG. 26)” value (from here on “Sensitivity of control … (FIG. 26)”) [2] does the source give for `CC(C)(C)NCC(O)c1cc(O)cc(O)c1` (stereo not shown) [terbutalin] here?
**A.** do not affect the control animals; also recorded: does not aspecifically affect the sensitivity of the control animals

**Q.** And the “Nociceptive sensitivity of control (Sham) mice under chronic treatment” value [2]?
**A.** not affected

**Q.** And the “Sensitivity of control (Sham) animals, dose-response recapitulation (FIG. 21)” value ([2]; terbutalin 0.125, 0.25, 0.5 or 5 mg/kg, nortriptylin 5 mg/kg, twice a day, 3 weeks)?
**A.** do not affect

**Q.** And the “Effect of coadministered beta2-adrenoreceptor antagonist ICI 118,551 on the allodynia of agonist-treated Cuff mice” value [1]?
**A.** causes the allodynia to reappear

**Q.** What about the “Effect of ICI 118,551 on the therapeutic effect of chronic agonist treatment on neuropathic allodynia, summary statement” value [1] of the same molecule?
**A.** blocks the therapeutic effect

**Q.** And the “Mechanical allodynia of the right (neuropathic) foot after chronic treatment” value ([3]; 0.125 mg/kg, injection twice a day, chronic)?
**A.** completely suppress the mechanical allodynia

**Q.** And the “Mechanical allodynia of the right (neuropathic) foot after chronic treatment” value ([3]; 0.25 mg/kg, injection twice a day, chronic)?
**A.** completely suppress the mechanical allodynia

**Q.** And the “Mechanical allodynia in neuropathic (Cuff) mice after chronic treatment” value [3, 4]?
**A.** completely suppresses the mechanical allodynia

**Q.** What about the “Response of the non-neuropathic left foot (foot without surgery) of Cuff mice” value [3, 4] of the same molecule?
**A.** without aspecifically affecting the response

**Q.** What about the “Mechanical allodynia in neuropathic (Cuff) mice after chronic treatment” value ([3]; 5 mg/kg, injection twice a day (morning and evening), chronic) of the same molecule?
**A.** completely suppresses the mechanical allodynia

**Q.** What about the “Mechanical allodynia of Cuff mice after the first (acute) injection” value ([3]; 5 mg/kg) of the same molecule?
**A.** has no effect on the mechanical allodynia

**Q.** And the “Mechanical allodynia in neuropathic (Cuff) mice after chronic application of a gel to the skin” value ([3]; 2.5 mg/ml terbutalin hemisulfate in 5% hydroxyethylcellulose gel)?
**A.** relieves the mechanical allodynia; also recorded: relieves neuropathic allodynia

**Q.** What about the “Mechanical sensitivity of the non-neuropathic left foot of Cuff mice (FIG. 21)” value ([3]; 0.125, 0.25, 0.5 or 5 mg/kg twice a day, chronic (3 weeks)) of the same molecule?
**A.** without affecting the mechanical sensitivity

**Q.** And the “Allodynia of the neuropathic right foot, dose-response recapitulation (FIG. 21)” value ([3]; 0.125, 0.25, 0.5 or 5 mg/kg twice a day, chronic (3 weeks), averaged over third week)?
**A.** suppresses the allodynia

**Q.** And the “Allodynia in neuropathic (Cuff) animals after chronic treatment, recapitulation (FIG. 25)” value (shortened to “Allodynia in neuropathic (Cuff) animals”) [3]?
**A.** relieve this allodynia; also recorded: causes the neuropathic pain, for example the neuropathic allodynia, to completely disappear

**Q.** What about the “Effect on neuropathic allodynia acutely after the first injection, summary statement” value [3] of the same molecule?
**A.** not observed acutely after the first injection

**Q.** And the “Mechanical allodynia in neuropathic (Cuff) mice with subcutaneous implant (continuous delivery)” value ([3]; silicone tube implant containing 10 mg terbutalin hemisulfate, inserted 14 days after surgery)?
**A.** relieves the mechanical allodynia; also recorded: relieves neuropathic allodynia

**Q.** How did the “Effect of antagonist cotreatment with nortriptylin, compared with metoprolol” value ([1]; 5 mg/kg in place of metoprolol 2 mg/kg, same results = as metoprolol (no influence on the therapeutic benefit)) turn out when `CC(C)NCC(O)COc1ccc(CC(N)=O)cc1` (stereo not shown) [atenolol] was run?
**A.** same results

**Q.** For `CC(C)NCC(O)c1ccc(NS(C)(=O)=O)cc1.Cl` (racemic) [sotatol, (+/−) sotatol hydrochloride], which “Effect of antagonist cotreatment with nortriptylin, compared with propranolol” value ([1]; 2 mg/kg in place of propranolol 5 mg/kg, same results = as propranolol (allodynia reappears in Cuff, Sham not affected)) is on record?
**A.** same results

**Q.** Which results are given for `CC(NCCc1ccc(O)cc1)C(O)c1ccc(O)cc1` (stereo not shown) [ritodrin]?
**A.** Sensitivity of control (Sham) animals under chronic treatment, recapitulation (FIG. 26) [2]: do not affect the control animals; also recorded: does not aspecifically affect the sensitivity of the control animals; Effect of coadministered beta2-adrenoreceptor antagonist ICI 118,551 on the allodynia of agonist-treated Cuff mice [1]: causes the allodynia to reappear; Effect of ICI 118,551 on the therapeutic effect of chronic agonist treatment on neuropathic allodynia, summary statement [1]: blocks the therapeutic effect; Mechanical allodynia in neuropathic (Cuff) mice after chronic treatment ([3]; 10 mg/kg, injection twice a day, chronic): completely suppresses the mechanical allodynia; Allodynia in neuropathic (Cuff) animals after chronic treatment, recapitulation (FIG. 25) [3]: relieve this allodynia; also recorded: causes the neuropathic pain, for example the neuropathic allodynia, to completely disappear

**Q.** Which “Sensitivity of control … (FIG. 26)” value [2] does the source give for `CCC(NC(C)C)C(O)c1ccc(O)c2[nH]c(=O)ccc12` (stereo not shown) [procaterol] here?
**A.** do not affect the control animals; also recorded: does not aspecifically affect the sensitivity of the control animals

**Q.** And the “Effect of ICI 118,551 on the therapeutic effect of chronic agonist treatment on neuropathic allodynia, summary statement” value [1]?
**A.** blocks the therapeutic effect

**Q.** And the “Mechanical allodynia in neuropathic (Cuff) mice after chronic treatment” value ([3]; 0.8 mg/kg, injection twice a day, chronic)?
**A.** completely suppresses the mechanical allodynia

**Q.** And the “Allodynia in neuropathic (Cuff) animals” value [3]?
**A.** relieve this allodynia; also recorded: causes the neuropathic pain, for example the neuropathic allodynia, to completely disappear

**Q.** What does the source list for `COC(=O)[C@@H]1[C@H]2C[C@H]3c4[nH]c5ccccc5c4CCN3C[C@@H]2CC[C@@H]1O` [yohimbin]?
**A.** Nociceptive sensitivity of control (Sham) mice under antagonist injections [2, 5]: not affected; Effect of antagonist cotreatment on the therapeutic benefit of nortriptylin in Cuff mice [1, 6]: has no influence on the therapeutic benefit; Blocking of the effect of antidepressants on neuropathic allodynia by repeated antagonist treatment, summary statement [1]: ineffective in blocking the analgesic effect of antidepressants

**Q.** Which “Sensitivity of control … (FIG. 26)” value [2] does the source give for `CC(C)NCC(O)c1cc(O)cc(O)c1` (stereo not shown) [metaproterenol] here?
**A.** do not affect the control animals; also recorded: does not aspecifically affect the sensitivity of the control animals

**Q.** And the “Mechanical allodynia in neuropathic (Cuff) mice after chronic treatment” value ([3]; 1 mg/kg, injection twice a day, chronic)?
**A.** completely suppresses the mechanical allodynia

**Q.** And the “Mechanical allodynia in neuropathic (Cuff) mice after chronic application of a gel to the skin” value ([3]; 1 mg/ml metaproterenol hemisulfate in 5% hydroxyethylcellulose gel)?
**A.** relieves the mechanical allodynia; also recorded: relieves neuropathic allodynia

**Q.** What about the “Allodynia in neuropathic (Cuff) animals” value [3] of the same molecule?
**A.** relieve this allodynia; also recorded: causes the neuropathic pain, for example the neuropathic allodynia, to completely disappear

**Q.** For `CC(C)NCC(O)c1ccc(O)c(O)c1` (racemic) [isoprenalin, DL-isoproterenol chloride], which “Sensitivity of control … (FIG. 26)” value [2] is on record?
**A.** do not affect the control animals; also recorded: does not aspecifically affect the sensitivity of the control animals

**Q.** And the “Effect of coadministered beta2-adrenoreceptor antagonist ICI 118,551 on the allodynia of agonist-treated Cuff mice” value [1]?
**A.** causes the allodynia to reappear

**Q.** What about the “Effect of ICI 118,551 on the therapeutic effect of chronic agonist treatment on neuropathic allodynia, summary statement” value [1] of the same molecule?
**A.** blocks the therapeutic effect

**Q.** And the “Mechanical allodynia in neuropathic (Cuff) mice after chronic treatment” value [3, 4]?
**A.** completely suppresses the mechanical allodynia

**Q.** What about the “Allodynia in neuropathic (Cuff) animals” value [3] of the same molecule?
**A.** relieve this allodynia; also recorded: causes the neuropathic pain, for example the neuropathic allodynia, to completely disappear

**Q.** What does the source list for `Cc1ccc(OCC(O)C(C)NC(C)C)c2c1CCC2` (stereo not shown) [ICI 118,551]?
**A.** Nociceptive sensitivity of control (Sham) mice under antagonist injections ([2]; ICI 118,551 intraperitoneal (2 mg/kg) or intrathecal (3 μg in 10 μl), with salbutamol): not affected; Nociceptive sensitivity of control (Sham) mice under antagonist injections [2, 5]: not affected; also recorded: does not affect the response of the control animals; Time to reappearance of allodynia after the beginning of the cotreatment with nortriptylin ([1]; ICI 118,551 2 mg/kg intraperitoneal coadministered with nortriptylin, Cuff mice): ≤ 48 h; Effect of antagonist cotreatment on the therapeutic benefit of nortriptylin in Cuff mice [1, 6]: leads to reappearance of the neuropathic allodynia; Blocking of the effect of antidepressants on neuropathic allodynia by repeated antagonist treatment, summary statement [1]: blocks the effect of antidepressants

**Q.** What does the source list for `CN(C)C(=O)Oc1cc(OC(=O)N(C)C)cc(C(O)CNC(C)(C)C)c1` (stereo not shown) [bambuterol]?
**A.** Control (Sham) mice after the first administration ([2]; bambuterol 0.5 mg/kg, intraperitoneal, first injection): unaffected; Sensitivity of control (Sham) animals under chronic treatment, recapitulation (FIG. 26) [2]: do not affect the control animals; also recorded: does not aspecifically affect the sensitivity of the control animals; Nociceptive sensitivity of control (Sham) mice under chronic treatment [2]: not affected; Effect of coadministered beta2-adrenoreceptor antagonist ICI 118,551 on the allodynia of agonist-treated Cuff mice [1]: causes the allodynia to reappear; Effect of ICI 118,551 on the therapeutic effect of chronic agonist treatment on neuropathic allodynia, summary statement [1]: blocks the therapeutic effect; Mechanical allodynia in neuropathic (Cuff) mice after chronic treatment [3, 4]: completely suppresses the mechanical allodynia; Mechanical allodynia of Cuff mice after the first (acute) injection ([3]; 0.5 mg/kg): has no anti-allodynia effect; Allodynia in neuropathic (Cuff) animals after chronic treatment, recapitulation (FIG. 25) [3]: relieve this allodynia; also recorded: causes the neuropathic pain, for example the neuropathic allodynia, to completely disappear; Effect on neuropathic allodynia acutely after the first injection, summary statement [3]: not observed acutely after the first injection

**Q.** `CC(C)NCC(O)COc1cccc2ccccc12` (racemic) [propranolol, (+/−)-propranolol hydrochloride] was tested. Which “Nociceptive sensitivity of control (Sham) mice under antagonist injections” value ([2]; intraperitoneal antagonist, doses as for the Cuff mice of the same example (ICI 118,551 2 mg/kg, yohimbin 2 mg/kg, propranolol 5 mg/kg), with or without cotreatment, hydrochloride) did it give?
**A.** not affected; also recorded: does not affect the response of the control animals

**Q.** What about the “Effect of antagonist cotreatment on the therapeutic benefit of nortriptylin in Cuff mice” value ([1]; antagonist 5 mg/kg intraperitoneal with nortriptylin 5 mg/kg twice a day, after 3 weeks of nortriptylin) of the same molecule?
**A.** causes the allodynia to reappear in a few days

**Q.** What about the “Blocking of the effect of antidepressants on neuropathic allodynia by repeated antagonist treatment, summary statement” value [1] of the same molecule?
**A.** blocks the therapeutic effect of antidepressants

**Q.** What does the source list for `COCCc1ccc(OCC(O)CNC(C)C)cc1` (racemic) [metoprolol, (+/−)-metoprolol (+)-tartrate]?
**A.** Effect of antagonist cotreatment on the therapeutic benefit of nortriptylin in Cuff mice [1, 6]: has no influence on the therapeutic benefit; Blocking of the effect of antidepressants on neuropathic allodynia by repeated antagonist treatment, summary statement [1]: only the beta2-adrenoreceptor antagonist blocks the effect of antidepressants
